From patent US20080038245A1, “Methods of modulating angiogenesis” (priority 2001, published 2008)

Legend:
BREC [1] = test: Cell migration assay (modified Boyden chamber); format: cell-based, bovine; settings: VEGF 0.6 nM
Method: Primary cultures of bovine retinal endothelial cells (BREC) were isolated and cultured as described (17). […] A modified Boyden chamber migration assay was performed by using BREC (25). The top and bottom surface of the chamber membrane was coated with collagen I. […] Cells that migrated to the bottom of the chamber were enumerated by counting SYTOX green (Molecular Probes) nucleic acid-stained cells.

BREC [2] = settings: VEGF 0.6 nM, sentence cites ref. (2); cited from earlier work
E2F = E2F luciferase assay in BREC; format: cell-based, bovine
Method: Luciferase reporter constructs (Mercury Cell Cycle Profiling System, CLONTECH) were introduced into cells with LipofectAMINE reagent (Life Technologies, Rockville, Md.) as instructed by the manufacturer. Luciferase activity was measured by using the Dual-Luciferase Reporter Assay system (Promega).

Rb = Rb phosphorylation in BREC (phospho-specific antibodies); format: cell-based, bovine; settings: time-dependent, all sites (S249/T242, S780, S795, S807/S811, S821)
BREC [3] = test: Cell growth assay (DNA content, VEGF-induced proliferation); format: cell-based, bovine; settings: VEGF 0.6 nM, after 4 days
Method: Primary cultures of bovine retinal endothelial cells (BREC) were isolated and cultured as described (17). Only cells from passages 2-7 were used for the experiments.
BREC were plated onto 12-well culture plates and incubated overnight in DMEM containing 10% calf serum, after which the cells were infected with adenovirus (23). After incubation for 4 days at 37° C. with or without VEGF (0.6 nM), the cells were lysed in 0.1% SDS, and the DNA content was measured by means of Hoechst-33258 dye and a fluorometer (model TKO-100, Hoefer). E2 promoter binding factor (E2F) decoys were used as described (24).

PKCβ2 and Rb = test: Association of PKCβ2 with Rb in BREC (immunoprecipitation / immunoblot); format: cell-based, bovine

For CN(C)CCCn1cc(C2=C(c3c[nH]c4ccccc34)C(=O)NC2=O)c2ccccc21 [GFX], the “effect on VEGF-increased BREC migration” value (BREC [1]) is listed as “inhibited” and the “effect on VEGF's mitogenic activity” value (BREC [2]) is listed as “blocked VEGF's mitogenic activity completely”.

In the case of COc1cccc(-c2cc(=O)c3ccccc3o2)c1N [PD98059], the “effect on VEGF-increased BREC migration” value (BREC [1]) is given as “inhibited” and the “effect on VEGF's mitogenic activity” value (BREC [2]) is given as “blocked VEGF's mitogenic activity completely”.

With COC[C@H]1OC(=O)c2coc3c2[C@@]1(C)C1=C(C3=O)[C@@H]2CCC(=O)[C@@]2(C)C[C@H]1OC(C)=O [wortmannin] the “inhibition of VEGF-induced BREC migration” value (BREC [1]) was 41%.

In the case of VEGF, the “increase of E2F activity” value (E2F) was 8.6 fold, the “increase of migration of BREC” value (BREC [1]) was 2 fold and the “increase of phosphorylation of Rb” value (Rb) was “up to 3 fold”. The “increase in BREC total DNA content” value (BREC [3]) was 2 fold, the “increase of phosphorylated Rb levels (pS780) in PKCβ2-Rb complex” value (PKCβ2 and Rb; VEGF 0.6 nM, overexpression of PKCβ2) was 2- to 3 fold and the “increase of amount of PKCβ2-associated Rb protein” value (PKCβ2 and Rb; VEGF 0.6 nM, immunoprecipitation with antibodies to Rb, immunoblot PKCβ2) was 1.7 fold. The “increase of association of PKCβ2 with Rb” value (PKCβ2 and Rb; immunoprecipitation with anti-PKCβ2 antibody, Rb immunoblot) was 2.2 fold.
